Measured values published in ChEMBL document CHEMBL3991601, “The target landscape of clinical kinase drugs” (Science, 2017).
Activity calls are given as the source filed them. Cut-off read from the data, not from the text of the source, for most assays here: actives have a measured Kd and inactives only a lower limit.

Experiments:
[1] = target: T1, Mitogen-activated protein kinase 15 (Homo sapiens, UniProt Q8TD08)
T1 sequence (Q8TD08 whole entry): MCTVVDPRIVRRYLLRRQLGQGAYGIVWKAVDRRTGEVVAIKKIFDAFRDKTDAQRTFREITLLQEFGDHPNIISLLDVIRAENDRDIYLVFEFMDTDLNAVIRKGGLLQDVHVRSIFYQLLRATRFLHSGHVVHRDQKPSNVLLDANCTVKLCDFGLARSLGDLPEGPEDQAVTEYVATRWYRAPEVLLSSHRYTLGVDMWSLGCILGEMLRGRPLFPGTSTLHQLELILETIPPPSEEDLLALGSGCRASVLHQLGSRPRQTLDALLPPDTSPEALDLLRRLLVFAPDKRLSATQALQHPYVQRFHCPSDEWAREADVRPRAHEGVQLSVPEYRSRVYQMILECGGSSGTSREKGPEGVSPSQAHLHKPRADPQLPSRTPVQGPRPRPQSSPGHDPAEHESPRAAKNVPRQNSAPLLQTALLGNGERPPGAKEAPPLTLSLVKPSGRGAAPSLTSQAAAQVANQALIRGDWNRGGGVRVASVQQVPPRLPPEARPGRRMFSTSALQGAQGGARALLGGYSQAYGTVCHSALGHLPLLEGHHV

[2] = target: T2, Serine/threonine-protein kinase ULK3 (Homo sapiens, UniProt Q6PHR2)
T2 sequence (Q6PHR2 whole entry): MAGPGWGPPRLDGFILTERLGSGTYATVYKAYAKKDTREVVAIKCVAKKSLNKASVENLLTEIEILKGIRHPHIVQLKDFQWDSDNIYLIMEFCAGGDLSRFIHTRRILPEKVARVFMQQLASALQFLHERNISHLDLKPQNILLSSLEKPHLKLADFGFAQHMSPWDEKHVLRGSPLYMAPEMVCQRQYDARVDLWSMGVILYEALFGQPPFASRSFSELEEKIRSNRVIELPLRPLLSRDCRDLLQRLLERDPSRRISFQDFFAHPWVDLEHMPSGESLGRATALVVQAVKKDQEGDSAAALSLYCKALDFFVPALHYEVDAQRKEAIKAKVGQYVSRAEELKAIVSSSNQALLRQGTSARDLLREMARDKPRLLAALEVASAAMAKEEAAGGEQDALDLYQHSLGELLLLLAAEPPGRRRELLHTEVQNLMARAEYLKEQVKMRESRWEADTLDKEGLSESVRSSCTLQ

[3] = target: Protein-tyrosine kinase 6 (Homo sapiens, UniProt Q13882)
[4] = target: T3, Dynamin-like GTPase OPA1, mitochondrial (Homo sapiens, UniProt O60313)
T3 sequence (O60313 whole entry): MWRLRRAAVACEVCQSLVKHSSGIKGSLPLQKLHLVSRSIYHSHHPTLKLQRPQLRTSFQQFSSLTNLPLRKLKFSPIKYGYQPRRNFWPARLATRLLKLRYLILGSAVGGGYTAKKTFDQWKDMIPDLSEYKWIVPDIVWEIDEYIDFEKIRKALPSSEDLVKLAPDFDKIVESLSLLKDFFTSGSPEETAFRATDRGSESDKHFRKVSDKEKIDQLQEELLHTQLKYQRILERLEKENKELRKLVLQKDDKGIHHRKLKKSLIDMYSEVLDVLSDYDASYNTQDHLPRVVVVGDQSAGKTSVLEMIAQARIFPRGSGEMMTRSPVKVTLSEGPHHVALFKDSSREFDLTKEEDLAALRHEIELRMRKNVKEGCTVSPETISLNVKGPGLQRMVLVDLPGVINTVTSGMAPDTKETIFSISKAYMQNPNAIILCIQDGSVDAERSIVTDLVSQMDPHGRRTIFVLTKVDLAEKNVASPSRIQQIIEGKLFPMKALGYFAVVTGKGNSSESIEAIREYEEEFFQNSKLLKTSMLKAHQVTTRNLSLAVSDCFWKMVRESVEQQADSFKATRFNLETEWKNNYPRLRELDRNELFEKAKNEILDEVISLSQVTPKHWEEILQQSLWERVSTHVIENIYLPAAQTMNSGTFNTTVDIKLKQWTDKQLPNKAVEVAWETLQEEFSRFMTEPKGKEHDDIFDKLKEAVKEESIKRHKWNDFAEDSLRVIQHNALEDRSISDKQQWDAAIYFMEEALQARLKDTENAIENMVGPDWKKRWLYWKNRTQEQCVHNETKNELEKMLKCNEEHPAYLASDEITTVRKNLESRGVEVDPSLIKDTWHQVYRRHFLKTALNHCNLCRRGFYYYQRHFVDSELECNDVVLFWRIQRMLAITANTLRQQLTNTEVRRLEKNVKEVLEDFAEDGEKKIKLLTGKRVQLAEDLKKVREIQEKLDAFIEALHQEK

LIM domain kinase 1 = LIM domain kinase 1 (Homo sapiens, UniProt P53667)
TGF-beta receptor type-1 = target: T4, TGF-beta receptor type-1 (Homo sapiens, UniProt P36897)
T4 sequence (P36897 whole entry): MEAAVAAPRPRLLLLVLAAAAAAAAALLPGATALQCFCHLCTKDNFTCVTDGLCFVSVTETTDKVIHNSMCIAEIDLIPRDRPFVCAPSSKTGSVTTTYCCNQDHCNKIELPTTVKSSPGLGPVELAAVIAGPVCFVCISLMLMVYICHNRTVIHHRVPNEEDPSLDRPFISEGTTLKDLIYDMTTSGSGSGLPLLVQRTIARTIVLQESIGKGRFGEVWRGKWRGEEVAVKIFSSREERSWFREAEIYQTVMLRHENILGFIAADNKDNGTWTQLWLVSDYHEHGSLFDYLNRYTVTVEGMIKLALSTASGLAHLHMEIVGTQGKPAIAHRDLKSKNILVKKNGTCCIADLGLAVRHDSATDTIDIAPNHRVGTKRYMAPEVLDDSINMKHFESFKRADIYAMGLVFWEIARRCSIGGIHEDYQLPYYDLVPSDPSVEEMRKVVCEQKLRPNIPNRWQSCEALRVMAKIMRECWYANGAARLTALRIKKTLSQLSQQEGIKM

[5] = target: T5, Ribosyldihydronicotinamide dehydrogenase [quinone] (Homo sapiens, UniProt P16083)
T5 sequence (P16083 whole entry): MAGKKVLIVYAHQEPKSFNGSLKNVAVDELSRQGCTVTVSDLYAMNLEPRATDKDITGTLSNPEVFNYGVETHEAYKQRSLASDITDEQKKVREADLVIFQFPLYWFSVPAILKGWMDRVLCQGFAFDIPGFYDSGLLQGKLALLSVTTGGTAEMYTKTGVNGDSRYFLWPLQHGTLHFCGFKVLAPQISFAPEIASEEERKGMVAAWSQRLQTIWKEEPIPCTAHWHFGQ

[6] = target: Ribosomal protein S6 kinase alpha-3 (Homo sapiens, UniProt P51812)
[7] = target: Receptor-interacting serine/threonine-protein kinase 2 (Homo sapiens, UniProt O43353)
Note: in the data inactive means no Kd found up to 30 µM.

Chain of Receptor-interacting serine/threonine-protein kinase 2 (O43353 whole entry): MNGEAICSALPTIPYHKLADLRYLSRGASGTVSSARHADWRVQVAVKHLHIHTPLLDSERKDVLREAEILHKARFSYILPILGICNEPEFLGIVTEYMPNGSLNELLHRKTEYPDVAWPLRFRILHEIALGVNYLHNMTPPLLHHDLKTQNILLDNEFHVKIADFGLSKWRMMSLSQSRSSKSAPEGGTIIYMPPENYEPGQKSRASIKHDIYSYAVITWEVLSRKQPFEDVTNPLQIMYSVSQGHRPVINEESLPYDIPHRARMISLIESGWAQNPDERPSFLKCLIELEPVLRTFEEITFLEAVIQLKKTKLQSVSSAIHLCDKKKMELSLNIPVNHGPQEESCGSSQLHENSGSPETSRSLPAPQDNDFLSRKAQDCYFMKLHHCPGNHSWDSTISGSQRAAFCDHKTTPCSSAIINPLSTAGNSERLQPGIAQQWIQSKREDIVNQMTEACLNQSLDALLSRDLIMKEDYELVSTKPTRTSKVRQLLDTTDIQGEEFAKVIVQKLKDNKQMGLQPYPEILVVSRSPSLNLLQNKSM
Chain of Protein-tyrosine kinase 6 (Q13882 whole entry): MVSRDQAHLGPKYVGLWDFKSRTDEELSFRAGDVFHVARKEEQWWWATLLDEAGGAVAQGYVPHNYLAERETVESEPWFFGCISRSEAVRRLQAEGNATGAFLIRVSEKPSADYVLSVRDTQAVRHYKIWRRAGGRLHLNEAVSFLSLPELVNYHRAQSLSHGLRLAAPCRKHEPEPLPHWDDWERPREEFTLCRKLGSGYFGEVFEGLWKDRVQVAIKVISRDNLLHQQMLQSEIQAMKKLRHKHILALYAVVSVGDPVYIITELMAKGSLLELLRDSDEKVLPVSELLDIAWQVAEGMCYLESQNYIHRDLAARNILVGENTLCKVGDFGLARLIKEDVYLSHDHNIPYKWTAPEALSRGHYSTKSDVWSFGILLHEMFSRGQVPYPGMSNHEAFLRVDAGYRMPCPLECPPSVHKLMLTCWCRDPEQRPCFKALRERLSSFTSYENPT
Chain of Ribosomal protein S6 kinase alpha-3 (P51812 whole entry): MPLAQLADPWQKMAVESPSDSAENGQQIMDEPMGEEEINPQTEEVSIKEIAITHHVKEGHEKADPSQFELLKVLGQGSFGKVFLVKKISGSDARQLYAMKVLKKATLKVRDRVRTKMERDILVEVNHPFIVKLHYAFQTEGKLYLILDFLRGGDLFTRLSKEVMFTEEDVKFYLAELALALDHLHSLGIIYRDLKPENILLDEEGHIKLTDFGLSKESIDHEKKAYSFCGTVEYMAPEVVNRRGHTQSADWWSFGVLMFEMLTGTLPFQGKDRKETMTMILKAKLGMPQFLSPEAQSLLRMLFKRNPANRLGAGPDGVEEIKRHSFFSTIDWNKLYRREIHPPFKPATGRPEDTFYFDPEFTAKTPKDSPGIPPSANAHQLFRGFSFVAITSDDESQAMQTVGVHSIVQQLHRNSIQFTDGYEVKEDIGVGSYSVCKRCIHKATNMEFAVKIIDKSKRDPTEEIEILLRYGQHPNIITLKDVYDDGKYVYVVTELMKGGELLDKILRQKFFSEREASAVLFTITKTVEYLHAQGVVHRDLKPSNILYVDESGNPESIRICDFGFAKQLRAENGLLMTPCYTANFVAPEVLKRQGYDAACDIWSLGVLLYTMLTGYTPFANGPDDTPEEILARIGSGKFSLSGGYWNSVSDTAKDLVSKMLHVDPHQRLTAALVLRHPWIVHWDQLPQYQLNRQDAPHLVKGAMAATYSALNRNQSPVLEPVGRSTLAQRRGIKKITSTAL
Chain of LIM domain kinase 1 (P53667 whole entry, the tested form may be a part): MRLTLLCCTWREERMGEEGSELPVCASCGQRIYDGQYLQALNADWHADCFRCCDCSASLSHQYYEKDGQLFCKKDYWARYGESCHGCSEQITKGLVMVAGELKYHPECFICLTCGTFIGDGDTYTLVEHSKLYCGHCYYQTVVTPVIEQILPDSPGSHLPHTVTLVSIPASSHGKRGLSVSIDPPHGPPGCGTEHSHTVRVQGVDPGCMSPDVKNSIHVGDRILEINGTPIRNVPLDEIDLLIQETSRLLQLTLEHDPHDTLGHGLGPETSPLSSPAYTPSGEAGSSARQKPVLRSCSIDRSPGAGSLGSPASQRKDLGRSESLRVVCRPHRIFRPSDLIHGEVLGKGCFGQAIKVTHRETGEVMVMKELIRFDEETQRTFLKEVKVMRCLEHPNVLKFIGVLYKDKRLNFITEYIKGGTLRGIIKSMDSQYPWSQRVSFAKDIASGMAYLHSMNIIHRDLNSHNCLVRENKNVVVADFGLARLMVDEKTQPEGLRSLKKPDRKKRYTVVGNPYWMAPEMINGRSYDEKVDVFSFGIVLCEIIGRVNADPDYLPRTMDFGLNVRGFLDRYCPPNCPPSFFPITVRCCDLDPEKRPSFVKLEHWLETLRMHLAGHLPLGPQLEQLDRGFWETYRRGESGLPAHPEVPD

Compound | Kd [1] | Kd [2] | Kd [3] | Kd [4] | Kd (LIM domain kinase 1) | Kd (TGF-beta receptor type-1) | Kd [5] | Kd [6] | Kd [7]
CN(C)C(=O)c1cc2cnc(Nc3ccc(N4CCNCC4)cn3)nc2n1C1CCCC1 [RIBOCICLIB] | > 30 µM (inactive) | > 30 µM (inactive) | > 30 µM (inactive) | > 30 µM (inactive) | > 30 µM (inactive) | > 30 µM (inactive) | > 30 µM (inactive) | > 30 µM (inactive) | > 30 µM (inactive)
COc1ccc(-c2ccc3c(N4CCOC[C@@H]4C)nc(N4CCOC[C@@H]4C)nc3n2)cc1CO [AZD-8055] | > 30 µM (inactive) | > 30 µM (inactive) | > 30 µM (inactive) | > 30 µM (inactive) | > 30 µM (inactive) | > 30 µM (inactive) | > 30 µM (inactive) | > 30 µM (inactive) | > 30 µM (inactive)
C[C@@H](Nc1cc(F)cc(F)c1)c1cc(C(=O)N(C)C)cc2c(=O)cc(N3CCOCC3)oc12 [AZD-8186] | > 30 µM (inactive) | > 30 µM (inactive) | > 30 µM (inactive) | > 30 µM (inactive) | > 30 µM (inactive) | > 30 µM (inactive) | > 30 µM (inactive) | > 30 µM (inactive) | > 30 µM (inactive)
CNC(=O)CN1CCC(Oc2cc3c(Nc4cccc(Cl)c4F)ncnc3cc2OC)CC1 [SAPITINIB] | > 30 µM (inactive) | > 30 µM (inactive) | 2.2 µM (active) | > 30 µM (inactive) | > 30 µM (inactive) | > 30 µM (inactive) | > 30 µM (inactive) | > 30 µM (inactive) | 0.751 µM (active)
CCCS(=O)(=O)Nc1ccc(F)c(C(=O)c2c[nH]c3ncc(-c4ccc(Cl)cc4)cc23)c1F [VEMURAFENIB] | > 30 µM (inactive) | > 30 µM (inactive) | 1.41 µM (active) | > 30 µM (inactive) | > 30 µM (inactive) | > 30 µM (inactive) | > 30 µM (inactive) | > 30 µM (inactive) | 0.427 µM (active)
CNC(=O)c1ccc(C)c(-n2c(C)cc(OCc3ccc(F)cc3F)c(Br)c2=O)c1 [PH-797804] | > 30 µM (inactive) | > 30 µM (inactive) | > 30 µM (inactive) | > 30 µM (inactive) | > 30 µM (inactive) | > 30 µM (inactive) | > 30 µM (inactive) | > 30 µM (inactive) | > 30 µM (inactive)
C[C@@H](c1ccc2nccn2c1)n1nnc2ncc(-c3cnn(C)c3)nc21 [SAVOLITINIB] | > 30 µM (inactive) | > 30 µM (inactive) | > 30 µM (inactive) | > 30 µM (inactive) | > 30 µM (inactive) | > 30 µM (inactive) | 0.206 µM (active) | > 30 µM (inactive) | > 30 µM (inactive)
CN1CCC(COc2cnc(-c3cccc(Cn4nc(-c5cccc(C#N)c5)ccc4=O)c3)nc2)CC1 [TEPOTINIB] | > 30 µM (inactive) | > 30 µM (inactive) | > 30 µM (inactive) | > 30 µM (inactive) | > 30 µM (inactive) | > 30 µM (inactive) | 0.875 µM (active) | > 30 µM (inactive) | > 30 µM (inactive)
COc1cc(N2CCC(N3CCN(C)CC3)CC2)ccc1Nc1ncnc(Nc2ccccc2S(=O)(=O)C(C)C)n1 [ASP-3026] | > 30 µM (inactive) | > 30 µM (inactive) | 0.061 µM (active) | > 30 µM (inactive) | 3.98 µM (active) | > 30 µM (inactive) | 6.36 µM (active) | > 30 µM (inactive) | > 30 µM (inactive)
CNC(=O)c1ccc(-c2cnc3ncc(Cc4ccc5ncccc5c4)n3n2)cc1F [CAPMATINIB] | > 30 µM (inactive) | > 30 µM (inactive) | > 30 µM (inactive) | > 30 µM (inactive) | > 30 µM (inactive) | > 30 µM (inactive) | > 30 µM (inactive) | > 30 µM (inactive) | > 30 µM (inactive)
CCn1c(=O)c(-c2cc[nH]n2)cc2c(C)nc(N)nc21 [VOXTALISIB] | > 30 µM (inactive) | > 30 µM (inactive) | > 30 µM (inactive) | > 30 µM (inactive) | > 30 µM (inactive) | > 30 µM (inactive) | > 30 µM (inactive) | > 30 µM (inactive) | > 30 µM (inactive)
Cc1cc2c(F)c(Oc3ncnn4cc(OC[C@@H](C)OC(=O)[C@H](C)N)c(C)c34)ccc2[nH]1 [BRIVANIB ALANINATE] | > 30 µM (inactive) | > 30 µM (inactive) | > 30 µM (inactive) | > 30 µM (inactive) | > 30 µM (inactive) | > 30 µM (inactive) | > 30 µM (inactive) | > 30 µM (inactive) | > 30 µM (inactive)
COc1cc(OC)c(/C=C/S(=O)(=O)Cc2ccc(OC)c(NCC(=O)O)c2)c(OC)c1 [RIGOSERTIB] | > 30 µM (inactive) | > 30 µM (inactive) | > 30 µM (inactive) | > 30 µM (inactive) | > 30 µM (inactive) | > 30 µM (inactive) | 15.2 µM (active) | > 30 µM (inactive) | > 30 µM (inactive)
C=CC(=O)N1CCC(Oc2cc3c(Nc4ccc(Cl)c(Cl)c4F)ncnc3cc2OC)CC1 [POZIOTINIB] | > 30 µM (inactive) | > 30 µM (inactive) | > 30 µM (inactive) | > 30 µM (inactive) | > 30 µM (inactive) | > 30 µM (inactive) | > 30 µM (inactive) | > 30 µM (inactive) | 0.048 µM (active)
